molecular target: T1, hFXR (Homo sapiens, UniProt Q96RI1); assay: In Vitro FXR Assay (TK): TK-ECRE-luc reporter in transfected CV-1 cells; type: cell-based; conditions: 18 hrs, luminescence, maximum efficacy of <25% of the Fexarmine control classified as '+'
T1 construct: expressed in transfected cells; host or cells: CV-1 cells
T1 sequence (Q96RI1 1-486): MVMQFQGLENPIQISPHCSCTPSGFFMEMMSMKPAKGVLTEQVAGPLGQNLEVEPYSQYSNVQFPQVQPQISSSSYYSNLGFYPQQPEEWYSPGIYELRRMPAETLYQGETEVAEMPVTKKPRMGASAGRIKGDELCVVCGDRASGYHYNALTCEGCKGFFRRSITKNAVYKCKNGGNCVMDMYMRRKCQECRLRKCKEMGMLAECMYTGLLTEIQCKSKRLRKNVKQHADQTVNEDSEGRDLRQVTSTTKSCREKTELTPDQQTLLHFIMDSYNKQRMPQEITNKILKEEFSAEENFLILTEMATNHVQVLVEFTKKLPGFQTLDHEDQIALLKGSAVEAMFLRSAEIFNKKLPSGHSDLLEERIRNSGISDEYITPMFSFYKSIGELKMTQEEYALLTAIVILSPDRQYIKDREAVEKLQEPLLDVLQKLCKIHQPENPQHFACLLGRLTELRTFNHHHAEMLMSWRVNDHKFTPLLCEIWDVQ
T1 sequence (P19793 1-462 partner): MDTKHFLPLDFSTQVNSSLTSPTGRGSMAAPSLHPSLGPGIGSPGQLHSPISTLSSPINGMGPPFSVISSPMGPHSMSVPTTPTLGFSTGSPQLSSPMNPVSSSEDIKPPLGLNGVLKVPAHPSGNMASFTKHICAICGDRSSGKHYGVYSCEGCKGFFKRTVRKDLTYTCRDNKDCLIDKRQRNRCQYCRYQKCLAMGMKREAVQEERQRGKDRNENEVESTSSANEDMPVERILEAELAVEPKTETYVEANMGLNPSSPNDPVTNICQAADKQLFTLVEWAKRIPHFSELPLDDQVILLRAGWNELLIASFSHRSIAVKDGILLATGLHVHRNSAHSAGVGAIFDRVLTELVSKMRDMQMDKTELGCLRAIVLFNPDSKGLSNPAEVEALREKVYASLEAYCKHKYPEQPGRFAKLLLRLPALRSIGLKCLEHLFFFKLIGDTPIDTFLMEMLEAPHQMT
In short: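 CV-1 cells transiently co-transfected with hFXR, hRXR, TK-ECRE-luc and pCMX-YFP plasmids in charcoal-stripped serum medium. Serially diluted compounds added, cells incubated 18 h at 37° C, then lysed and luminescence read.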

EC50, ≤ 250 nM:
COc1ccc([C@H]2CC[C@H](CN(c3cccc(-c4cnn(C5CC5)c4)c3)C(=O)[C@H]3CC[C@H](OC(=O)N4CC(CSC)C4)CC3)CC2)cc1C [Compound 4.28, trans-4-((3-(1-Cyclopropyl-1H-pyrazol-4-yl)phenyl)((trans-4-(4-methoxy-3-methylphenyl)cyclohexyl)methyl)carbamoyl)cyclohexyl 3-((methylthio)methyl)azetidine-1-carboxylate]
CCNC(=O)O[C@H]1CC[C@H](C(=O)N(C[C@H]2CC[C@H](c3ccc(OC)c(C#N)c3)CC2)c2cc(-c3cnn(C(C)C)c3)ccn2)CC1 [Compound 5, trans-4-(((trans-4-(3-Cyano-4-methoxyphenyl)cyclohexyl)methyl)(4-(1-isopropyl-1H-pyrazol-4-yl)pyridin-2-yl)carbamoyl)cyclohexyl ethylcarbamate]
CNC(=O)O[C@H]1CC[C@H](C(=O)N(C[C@H]2CC[C@H](c3ccc(OC)c(C)c3)CC2)c2cc(-c3cnc(C4CC4)s3)ccn2)CC1 [Compound 5.01, trans-4-((4-(2-Cyclopropylthiazol-5-yl)pyridin-2-yl)((trans-4-(4-methoxy-3-methylphenyl)cyclohexyl)methyl)carbamoyl)cyclohexyl methylcarbamate]
CNC(=O)O[C@H]1CC[C@H](C(=O)N(C[C@H]2CC[C@H](c3ccc(OC)c(C)c3)CC2)c2cc(-c3cnc(C(C)C)s3)ccn2)CC1 [Compound 5.02, trans-4-((4-(2-Isopropylthiazol-5-yl)pyridin-2-yl)((trans-4-(4-methoxy-3-methylphenyl)cyclohexyl)methyl)carbamoyl)cyclohexyl methylcarbamate]
CNC(=O)O[C@H]1CC[C@H](C(=O)N(C[C@H]2CC[C@H](c3ccc(OC)c(C)n3)CC2)c2cc(-c3cnc(C4CC4)s3)ccn2)CC1 [Compound 5.03, trans-4-((4-(2-Cyclopropylthiazol-5-yl)pyridin-2-yl)((trans-4-(5-methoxy-6-methylpyridin-2-yl)cyclohexyl)methyl)carbamoyl)cyclohexyl methylcarbamate]
CNC(=O)O[C@H]1CC[C@H](C(=O)N(C[C@H]2CC[C@H](c3ccc(OC)c(C)n3)CC2)c2cc(-c3cnc(C(C)C)s3)ccn2)CC1 [Compound 5.04, trans-4-((4-(2-Isopropylthiazol-5-yl)pyridin-2-yl)((trans-4-(5-methoxy-6-methylpyridin-2-yl)cyclohexyl)methyl)carbamoyl)cyclohexyl methylcarbamate]
CNC(=O)O[C@H]1CC[C@H](C(=O)N(C[C@H]2CC[C@H](c3ccc(OC)c(C#N)c3)CC2)c2cc(-c3cnc(C4CC4)s3)ccn2)CC1 [Compound 5.05, trans-4-(((trans-4-(3-Cyano-4-methoxyphenyl)cyclohexyl)methyl)(4-(2-cyclopropylthiazol-5-yl)pyridin-2-yl)carbamoyl)cyclohexyl methylcarbamate]
CNC(=O)O[C@H]1CC[C@H](C(=O)N(C[C@H]2CC[C@H](c3ccc(OC)c(C#N)n3)CC2)c2cccc(-c3cnc(C4CC4)s3)c2)CC1 [Compound 5.06, trans-4-(((trans-4-(6-Cyano-5-methoxypyridin-2-yl)cyclohexyl)methyl)(3-(2-cyclopropylthiazol-5-yl)phenyl)carbamoyl)cyclohexyl methylcarbamate]
CNC(=O)O[C@H]1CC[C@H](C(=O)N(C[C@H]2CC[C@H](c3ccc(OC)c(C#N)n3)CC2)c2cc(-c3cnc(C4CC4)s3)ccn2)CC1 [Compound 5.07, trans-4-(((trans-4-(6-Cyano-5-methoxypyridin-2-yl)cyclohexyl)methyl)(4-(2-cyclopropylthiazol-5-yl)pyridin-2-yl)carbamoyl)cyclohexyl methylcarbamate]
CNC(=O)O[C@H]1CC[C@H](C(=O)N(C[C@H]2CC[C@H](c3ccc(OC)c(C)n3)CC2)c2cccc(-c3cnc(C(C)C)s3)c2)CC1 [Compound 5.08, trans-4-((3-(2-Isopropylthiazol-5-yl)phenyl)((trans-4-(5-methoxy-6-methylpyridin-2-yl)cyclohexyl)methyl)carbamoyl)cyclohexyl methylcarbamate]
CNC(=O)O[C@H]1CC[C@H](C(=O)N(C[C@H]2CC[C@H](c3ccc(N(C)C)nc3)CC2)c2cccc(-c3cnn(C4CC4)c3)c2)CC1 [Compound 5.09, trans-4-((3-(1-Cyclopropyl-1H-pyrazol-4-yl)phenyl)((trans-4-(6-(dimethylamino)pyridin-3-yl)cyclohexyl)methyl)carbamoyl)cyclohexyl methylcarbamate]
CNC(=O)O[C@H]1CC[C@H](C(=O)N(C[C@H]2CC[C@H](c3ccc(OC)c(C)c3)CC2)c2cccc(-c3cnn(C(C)C)c3)c2)CC1 [Compound 5.10, trans-4-((3-(1-Isopropyl-1H-pyrazol-4-yl)phenyl)((trans-4-(4-methoxy-3-methylphenyl)cyclohexyl)methyl)carbamoyl)cyclohexyl methylcarbamate]
CNC(=O)O[C@H]1CC[C@H](C(=O)N(C[C@H]2CC[C@H](c3cnc(OC)c(Cl)c3)CC2)c2cccc(-c3cnn(C4CC4)c3)c2)CC1 [Compound 5.11, trans-4-(((trans-4-(5-Chloro-6-methoxypyridin-3-yl)cyclohexyl)methyl)(3-(1-cyclopropyl-1H-pyrazol-4-yl)phenyl)carbamoyl)cyclohexyl methylcarbamate]
CNC(=O)O[C@H]1CC[C@H](C(=O)N(C[C@H]2CC[C@H](c3ccc(OC)c(C)c3)CC2)c2cc(-c3cnn(C(C)C)c3)ccn2)CC1 [Compound 5.12, trans-4-((4-(1-Isopropyl-1H-pyrazol-4-yl)pyridin-2-yl)((trans-4-(4-methoxy-3-methylphenyl)cyclohexyl)methyl)carbamoyl)cyclohexyl methylcarbamate]
CNC(=O)O[C@H]1CC[C@H](C(=O)N(C[C@H]2CC[C@H](c3ccc(OC)c(C)n3)CC2)c2cc(-c3cnn(C4CC4)c3)ccn2)CC1 [Compound 5.13, trans-4-((4-(1-Cyclopropyl-1H-pyrazol-4-yl)pyridin-2-yl)((trans-4-(5-methoxy-6-methylpyridin-2-yl)cyclohexyl)methyl)carbamoyl)cyclohexyl methylcarbamate]
CNC(=O)O[C@H]1CC[C@H](C(=O)N(C[C@H]2CC[C@H](c3ccc(OC)c(C#N)c3)CC2)c2cccc(-c3cnn(C4CC4)c3)c2)CC1 [Compound 5.14, trans-4-(((trans-4-(3-Cyano-4-methoxyphenyl)cyclohexyl)methyl)(3-(1-cyclopropyl-1H-pyrazol-4-yl)phenyl)carbamoyl)cyclohexyl methylcarbamate]
CNC(=O)O[C@H]1CC[C@H](C(=O)N(C[C@H]2CC[C@H](c3ccc(OC)c(C#N)c3)CC2)c2cccc(-c3cnn(C(C)C)c3)c2)CC1 [Compound 5.15, trans-4-(((trans-4-(3-Cyano-4-methoxyphenyl)cyclohexyl)methyl)(3-(1-Isopropyl-1H-pyrazol-4-yl)phenyl)carbamoyl)cyclohexyl methylcarbamate]
